Test results published in the NIST ThermoML archive (doi:10.1016/j.jct.2014.12.020).
± gives the expanded uncertainty stated by the source.

Assay: wn = mass fraction of the nth substance listed
Conditions: 100 kPa, Liquid; for mass density: Vibrating tube method; for viscosity: Concentric cylinders viscometry

C[C@H](O)C(=O)[O-].C[N+](C)(C)CCO + O
Conditions | mass density [kg/m3] | viscosity [mPa·s]
318.15 K, w2 = 0.004 | 1125.4 ± 1.4 | –
318.15 K, w2 = 0.011 | 1125.9 ± 1.4 | –
318.15 K, w2 = 0.02 | 1126.1 ± 1.4 | –
318.15 K, w2 = 0.029 | 1125.5 ± 1.4 | –
318.15 K, w2 = 0.045 | 1124.7 ± 1.4 | –
318.15 K, w2 = 0.066 | 1123.8 ± 1.3 | –
318.15 K, w2 = 0.077 | 1123.3 ± 1.3 | –
318.15 K, w2 = 0.121 | 1121 ± 1.3 | –
318.15 K, w2 = 0.167 | 1119.5 ± 1.2 | –
318.15 K, w2 = 0.218 | 1115.2 ± 1.2 | –
318.15 K, w2 = 0.24 | 1111.2 ± 1.2 | –
323.15 K, w2 = 0.004 | 1122.3 ± 1.4 | 369.4 ± 12
323.15 K, w2 = 0.011 | 1122.7 ± 1.4 | 296.2 ± 9.3
323.15 K, w2 = 0.02 | 1123 ± 1.4 | 197.4 ± 20
323.15 K, w2 = 0.029 | 1122.4 ± 1.4 | 184.4 ± 5.1
323.15 K, w2 = 0.045 | 1121.6 ± 1.4 | 130.6 ± 3.3
323.15 K, w2 = 0.066 | 1120.8 ± 1.3 | 90.4 ± 2.1
323.15 K, w2 = 0.077 | 1120.2 ± 1.3 | 74.1 ± 1.7
323.15 K, w2 = 0.121 | 1118 ± 1.3 | 41.5 ± 0.9
323.15 K, w2 = 0.167 | 1116.3 ± 1.2 | 27.4 ± 0.6
323.15 K, w2 = 0.218 | 1112 ± 1.2 | 17.9 ± 0.4
323.15 K, w2 = 0.24 | 1108 ± 1.2 | 13.2 ± 0.3
328.15 K, w2 = 0.004 | 1119.2 ± 1.4 | 275.9 ± 8.5
328.15 K, w2 = 0.011 | 1119.8 ± 1.4 | 223.5 ± 6.5
328.15 K, w2 = 0.02 | 1120.1 ± 1.4 | 151.8 ± 15
328.15 K, w2 = 0.029 | 1119.4 ± 1.4 | 142.3 ± 3.7
328.15 K, w2 = 0.045 | 1118.6 ± 1.4 | 102.3 ± 2.5
328.15 K, w2 = 0.066 | 1117.7 ± 1.3 | 71.9 ± 1.6
328.15 K, w2 = 0.077 | 1117.1 ± 1.3 | 59.3 ± 1.3
328.15 K, w2 = 0.121 | 1114.9 ± 1.3 | 33.9 ± 0.8
328.15 K, w2 = 0.167 | 1113.2 ± 1.2 | 22.7 ± 0.5
328.15 K, w2 = 0.218 | 1108.8 ± 1.2 | 15 ± 0.3
328.15 K, w2 = 0.24 | 1104.8 ± 1.2 | 11.2 ± 0.3
333.15 K, w2 = 0.004 | 1116.3 ± 1.4 | 210.2 ± 6
333.15 K, w2 = 0.011 | 1116.8 ± 1.4 | 171.9 ± 4.7
333.15 K, w2 = 0.02 | 1117.1 ± 1.4 | 118.9 ± 12
333.15 K, w2 = 0.029 | 1116.5 ± 1.4 | 111.7 ± 2.7
333.15 K, w2 = 0.045 | 1115.6 ± 1.4 | 81.4 ± 1.9
333.15 K, w2 = 0.066 | 1114.7 ± 1.3 | 58 ± 1.3
333.15 K, w2 = 0.077 | 1114.1 ± 1.3 | 48.2 ± 1.1
333.15 K, w2 = 0.121 | 1111.8 ± 1.3 | 28.1 ± 0.6
333.15 K, w2 = 0.167 | 1110 ± 1.2 | 19 ± 0.4
333.15 K, w2 = 0.218 | 1105.6 ± 1.2 | 12.7 ± 0.3
333.15 K, w2 = 0.24 | 1101.5 ± 1.2 | 9.5 ± 0.2
338.15 K, w2 = 0.004 | 1113.3 ± 1.4 | 163.1 ± 4.4
338.15 K, w2 = 0.011 | 1114 ± 1.4 | 134.6 ± 3.4
338.15 K, w2 = 0.02 | 1114.2 ± 1.4 | 94.6 ± 9.5
338.15 K, w2 = 0.029 | 1113.6 ± 1.4 | 89 ± 2.1
338.15 K, w2 = 0.045 | 1112.6 ± 1.4 | 65.8 ± 1.5
338.15 K, w2 = 0.066 | 1111.8 ± 1.3 | 47.5 ± 1.1
338.15 K, w2 = 0.077 | 1111.2 ± 1.3 | 39.7 ± 0.9
338.15 K, w2 = 0.121 | 1108.6 ± 1.3 | 23.5 ± 0.5
338.15 K, w2 = 0.167 | 1106.8 ± 1.2 | 16.1 ± 0.4
338.15 K, w2 = 0.218 | 1102.4 ± 1.2 | 11 ± 0.2
338.15 K, w2 = 0.24 | 1098.3 ± 1.2 | 8.3 ± 0.2
343.15 K, w2 = 0.004 | 1110.2 ± 1.4 | 128.7 ± 3.3
343.15 K, w2 = 0.011 | 1111 ± 1.4 | 106.9 ± 2.6
343.15 K, w2 = 0.02 | 1111.3 ± 1.4 | 76.3 ± 7.7
343.15 K, w2 = 0.029 | 1110.7 ± 1.4 | 72 ± 1.6
343.15 K, w2 = 0.045 | 1109.8 ± 1.3 | 53.8 ± 1.2
343.15 K, w2 = 0.066 | 1108.8 ± 1.3 | 39.3 ± 0.9
343.15 K, w2 = 0.077 | 1108.1 ± 1.3 | 33.1 ± 0.7
343.15 K, w2 = 0.121 | 1105.5 ± 1.3 | 19.9 ± 0.4
343.15 K, w2 = 0.167 | 1103.7 ± 1.2 | 13.8 ± 0.3
343.15 K, w2 = 0.218 | 1099.2 ± 1.2 | 9.5 ± 0.2
343.15 K, w2 = 0.24 | 1095 ± 1.2 | 7.3 ± 0.2
